PubChem BioAssay (NCI)
Several values for one entry are separate records, joined by “and”; a condition that tells them apart may be missing. Identical values can stand only once.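 Growth conditions: 96-well plates. Treatment: test compound, 48 hours, 5 concentrations. Analysis: linear interpolation between bracketing concentrations; unreached endpoints set to highest concentration. Abbreviation: GI50, concentration required for 50% inhibition of growth. At the TGI there is no net growth.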

Tested on: SK-MEL-2 melanoma
Assay: NCI tumour cell line growth inhibition, 48 h

Row | Compound | TGI | GI50 [µM]
1 | CCN(CCO)CC1CCCC2CCCCC21 (centres undefined) | > 100 µM | 
2 | CC[C@@]1(O)C[C@H](OC2CC(N(C)C)C(O)C(C)O2)c2c(O)c3c(c(O)c2[C@H]1OC1CC(N(C)C)C(O)C(C)O1)C(=O)c1cccc(O)c1C3=O (some centres undefined) | 0.0568 µM and < 0.01 µM | < 0.01
3 | COC1(OC)CCC2C1C1CCC(OC)(OC)C21 (centres undefined) | > 50 µM | 
4 | NNC(=O)Nc1cccnc1 | > 100 µM | 
5 | CC/C=C\CCC/C=C1/C(=O)C=C[C@@H]1C/C=C\CCCC(=O)OC | 7.21 µM | 2.6
6 | COc1ccc(-c2nc3sccn3c2/C(N)=N/C(=N)N)cc1OC | > 100 µM | 29.4
7 | CCCCCCCCCCCOc1ccc(C(=O)C(=O)c2ccc(OCCCCCCCCCCC)c(OCCCCCCCCCCC)c2)cc1OCCCCCCCCCCC | > 100 µM | 
8 | Cn1cnc([N+](=O)[O-])c1Sc1nnc(-c2cccnc2)n1C | 46.1 µM | 
9 | CCOC(=O)C1=C(C)NC(=S)NC1c1ccccc1 (centres undefined) | > 100 µM | 
10 | COC1=CC(=O)c2nc(-c3ccncc3)[nH]c2C1=O | > 100 µM | > 100
11 | O=C(/C=C/c1ccccc1)NC1C=Nc2ccc(Cl)cc2NC1=O (centres undefined) | > 100 µM | 
12 | O=C(O)c1ccccc1[Se][Se]c1ccccc1C(=O)O | > 100 µM | 
13 | COc1cc(CNc2cnc3cc(N)cc(N)c3n2)cc(OC)c1 | > 100 µM | 66.7
14 | Clc1cc2nsnc2c(Cl)n1 | 34 µM | 
15 | N#CC1C(C#N)C2(c3ccccc3)C(c3ccccc3)=NN(c3ccccc3)CC12 (centres undefined) | > 100 µM | 
16 | COc1cc(Cc2cnc(/N=C3\C(=O)N(CN4CCN(c5c(F)cc6c(=O)c(C(=O)O)cn(C7CC7)c6c5OC)CC4C)c4ccc(F)cc43)nc2N)cc(OC)c1OC (centres undefined) | > 100 µM | 37.8
17 | Cc1cccc2c(=O)cc(-c3ccccc3)[nH]c12 | > 100 µM | 

Row | Compound | TGI | GI50 [µM]
18 | O=C(Nc1ccccc1)NS(=O)(=O)c1ccc(-n2nc3c(c2-c2cccs2)Cc2ccccc2-3)cc1 | > 100 µM | 70.1
19 | CCCCOC(=O)C1OC(O[C@H]2CCC3(C)C(CCC4(C)C3CC=C3C5CC(C)(C)CCC5(C(=O)O)CC[C@]34C)C2(C)C)C(OC2OC(CO)C(O)C(O)C2O)C(OC2OC(CO)C(O)C(O)C2O)C1O (some centres undefined) | > 100 µM | 40.9
20 | Cc1nc2ccccc2c(=O)n1-c1ccccc1I | > 100 µM | 
21 | CN1C(=O)C(C)(C)C2(SC(C)(C)C2(C)C)N(C)C1=S (centres undefined) | > 100 µM | 
22 | N#CCCN(CCC#N)c1ccc(/C=C2\N=C(c3cc([N+](=O)[O-])ccc3Cl)OC2=O)cc1 | 38.1 µM | 
23 | CC1=C(C(=O)Nc2ccc(Cl)c(Cl)c2)C(c2cccc(Oc3ccccc3)c2)NC(=S)N1 (centres undefined) | 18.9 µM | 9.38
24 | CC1(c2ccc(F)cc2)C(C#N)C(=O)NC(=O)C1C#N (centres undefined) | > 100 µM | 
25 | COc1ccc2c(C3=C(c4cn(C)c5ccccc45)C(=O)NC3=O)cn(C)c2c1 | > 9.97 µM | 0.597
26 | Cc1ccc(N=Nc2ccc(N(CCC#N)CCC#N)cc2C)c(Br)c1 | > 100 µM | 
27 | Cc1cc(C)nc(NS(=O)(=O)c2ccc(NC(=O)c3ccc(Cl)c4c(Nc5ccc(S(=O)(=O)Nc6nc(C)cc(C)n6)cc5)c5ccccc5nc34)cc2)n1 | > 100 µM | 
28 | COc1ccc2c3c1C(=O)CCCC3CO2 (centres undefined) | > 100 µM | 
29 | NC(=O)c1sc(-n2cnc3ccccc32)cc1OCc1ccccc1Br | > 25 µM | 6.43
30 | N#CC(c1ccc(Cl)cc1)c1cccc(C(C#N)c2ccc(Cl)cc2)n1 (centres undefined) | 83.2 µM | 
31 | O=C1/C(=C/c2ccccc2)CN(C(=O)C(Cl)(Cl)Cl)C/C1=C\c1ccccc1 | 10.3 µM | 
32 | O=S1(=O)c2ccccc2NC(c2ccc3ccccc3c2)CC1c1ccccc1F (centres undefined) | > 100 µM | 
33 | Cc1ccc(NC2=C(Cl)C(=O)N(Cc3ccccc3)C2=O)cc1O | 54.8 µM | 7.83

Tested on: TK-10 renal
Assay: NCI tumour cell line growth inhibition, 48 h

Row | Compound | TGI [µM] | GI50 [µM]
34 | CCN(CCO)CC1CCCC2CCCCC21 (centres undefined) | > 100 | 
35 | CC[C@@]1(O)C[C@H](OC2CC(N(C)C)C(O)C(C)O2)c2c(O)c3c(c(O)c2[C@H]1OC1CC(N(C)C)C(O)C(C)O1)C(=O)c1cccc(O)c1C3=O (some centres undefined) |  | < 0.01
36 | NNC(=O)Nc1cccnc1 | > 100 | 
37 | CC/C=C\CCC/C=C1/C(=O)C=C[C@@H]1C/C=C\CCCC(=O)OC | 20.1 | 7.61
38 | COc1ccc(-c2nc3sccn3c2/C(N)=N/C(=N)N)cc1OC | > 100 | 28.6
39 | CCCCCCCCCCCOc1ccc(C(=O)C(=O)c2ccc(OCCCCCCCCCCC)c(OCCCCCCCCCCC)c2)cc1OCCCCCCCCCCC | > 100 | 
40 | Cn1cnc([N+](=O)[O-])c1Sc1nnc(-c2cccnc2)n1C | 32.8 | 
41 | CCOC(=O)C1=C(C)NC(=S)NC1c1ccccc1 (centres undefined) | > 100 | 
42 | COC1=CC(=O)c2nc(-c3ccncc3)[nH]c2C1=O | > 100 | > 100
43 | O=C(/C=C/c1ccccc1)NC1C=Nc2ccc(Cl)cc2NC1=O (centres undefined) | > 100 | 
44 | CC(C)C/C(CC(=O)CCC(=O)Nc1ccccc1[N+](=O)[O-])=N\NC(=O)c1cc2ccccc2cc1O | > 100 | 
45 | O=C(O)c1ccccc1[Se][Se]c1ccccc1C(=O)O | > 100 | 
46 | COc1cc(CNc2cnc3cc(N)cc(N)c3n2)cc(OC)c1 | 57.6 | 18.4
47 | O=C(O)CCc1coc2ccc(O)cc12 | > 100 | 
48 | Clc1cc2nsnc2c(Cl)n1 | 44 | 
49 | N#CC1C(C#N)C2(c3ccccc3)C(c3ccccc3)=NN(c3ccccc3)CC12 (centres undefined) | > 100 | 
50 | COc1cc(Cc2cnc(/N=C3\C(=O)N(CN4CCN(c5c(F)cc6c(=O)c(C(=O)O)cn(C7CC7)c6c5OC)CC4C)c4ccc(F)cc43)nc2N)cc(OC)c1OC (centres undefined) | 25.3 | 11.6

Row | Compound | TGI [µM] | GI50 [µM]
51 | Cc1cccc2c(=O)cc(-c3ccccc3)[nH]c12 | > 100 | 
52 | O=C(Nc1ccccc1)NS(=O)(=O)c1ccc(-n2nc3c(c2-c2cccs2)Cc2ccccc2-3)cc1 | 30.8 | 4.99
53 | CCCCOC(=O)C1OC(O[C@H]2CCC3(C)C(CCC4(C)C3CC=C3C5CC(C)(C)CCC5(C(=O)O)CC[C@]34C)C2(C)C)C(OC2OC(CO)C(O)C(O)C2O)C(OC2OC(CO)C(O)C(O)C2O)C1O (some centres undefined) | > 100 | 33.3
54 | Cc1nc2ccccc2c(=O)n1-c1ccccc1I | > 100 | 
55 | CC1=C(C(=O)Nc2ccc(Cl)c(Cl)c2)C(c2cccc(Oc3ccccc3)c2)NC(=S)N1 (centres undefined) | 19.7 | 11.3
56 | CC1(c2ccc(F)cc2)C(C#N)C(=O)NC(=O)C1C#N (centres undefined) | > 100 | 
57 | O=C1C2C(C(=O)N1OS(=O)(=O)c1ccccc1)N(Cc1ccccc1)C(=O)N2Cc1ccccc1 (centres undefined) | > 100 | 
58 | COc1ccc2c(C3=C(c4cn(C)c5ccccc45)C(=O)NC3=O)cn(C)c2c1 | > 25 | > 25
59 | Cc1ccc(N=Nc2ccc(N(CCC#N)CCC#N)cc2C)c(Br)c1 | 66.3 | 
60 | Cc1cc(C)nc(NS(=O)(=O)c2ccc(NC(=O)c3ccc(Cl)c4c(Nc5ccc(S(=O)(=O)Nc6nc(C)cc(C)n6)cc5)c5ccccc5nc34)cc2)n1 | 83.1 | 
61 | COc1ccc2c3c1C(=O)CCCC3CO2 (centres undefined) | > 100 | 
62 | NC(=O)c1sc(-n2cnc3ccccc32)cc1OCc1ccccc1Br | > 25 | 11.3
63 | N#CC(c1ccc(Cl)cc1)c1cccc(C(C#N)c2ccc(Cl)cc2)n1 (centres undefined) | 69.9 | 
64 | O=C1/C(=C/c2ccccc2)CN(C(=O)C(Cl)(Cl)Cl)C/C1=C\c1ccccc1 | 8.72 | 
65 | O=S1(=O)c2ccccc2NC(c2ccc3ccccc3c2)CC1c1ccccc1F (centres undefined) | > 100 | 
66 | Cc1nc2ccccc2c(N)c1-c1cc(C)c2c(C)nc3ccccc3c2n1 | 2.78 | 1.44
67 | Cc1ccc(NC2=C(Cl)C(=O)N(Cc3ccccc3)C2=O)cc1O | > 100 | 31.3

Tested on: OVCAR-5 ovarian
Assay: NCI tumour cell line growth inhibition, 48 h

Row | Compound | TGI [µM] | GI50 [µM]
68 | CCN(CCO)CC1CCCC2CCCCC21 (centres undefined) | > 100 | 
69 | CC[C@@]1(O)C[C@H](OC2CC(N(C)C)C(O)C(C)O2)c2c(O)c3c(c(O)c2[C@H]1OC1CC(N(C)C)C(O)C(C)O1)C(=O)c1cccc(O)c1C3=O (some centres undefined) |  | < 0.01
70 | COC1(OC)CCC2C1C1CCC(OC)(OC)C21 (centres undefined) | > 50 | 
71 | NNC(=O)Nc1cccnc1 | > 100 | 
72 | CC/C=C\CCC/C=C1/C(=O)C=C[C@@H]1C/C=C\CCCC(=O)OC | 17.6 | 5.28
73 | COc1ccc(-c2nc3sccn3c2/C(N)=N/C(=N)N)cc1OC | > 100 | 78
74 | CCCCCCCCCCCOc1ccc(C(=O)C(=O)c2ccc(OCCCCCCCCCCC)c(OCCCCCCCCCCC)c2)cc1OCCCCCCCCCCC | > 100 | 
75 | Cn1cnc([N+](=O)[O-])c1Sc1nnc(-c2cccnc2)n1C | > 100 | 
76 | CCOC(=O)C1=C(C)NC(=S)NC1c1ccccc1 (centres undefined) | > 100 | 
77 | COC1=CC(=O)c2nc(-c3ccncc3)[nH]c2C1=O | > 100 | > 100
78 | O=C(/C=C/c1ccccc1)NC1C=Nc2ccc(Cl)cc2NC1=O (centres undefined) | > 100 | 
79 | CC(C)C/C(CC(=O)CCC(=O)Nc1ccccc1[N+](=O)[O-])=N\NC(=O)c1cc2ccccc2cc1O | > 100 | 
80 | COc1cc(CNc2cnc3cc(N)cc(N)c3n2)cc(OC)c1 | 48 | 17.6
81 | Clc1cc2nsnc2c(Cl)n1 | > 100 | 
